For 29 compounds, IC50 and inhibition results are on record in US20070275962A1, “Heterobicyclic Compounds as Pharmaceutically Active Agents” (GPC BIOTECH AG, priority 2003, published 2007).

In assay [1] the target is T1, mycobacterial protein kinase G (PknG) (Mycobacterium tuberculosis, UniProt P9WI73).
T1 construct: GST; made in house; host or cells: E. coli BL21
The experiment in a line: biochemical. Conditions: read-out: Inhibition of PknG (IC50, [μM]).

In the next assay the target is T2, RICK-STREP 1 (Homo sapiens, UniProt O43353).
T2 construct: Strep
T2 sequence (O43353 whole entry): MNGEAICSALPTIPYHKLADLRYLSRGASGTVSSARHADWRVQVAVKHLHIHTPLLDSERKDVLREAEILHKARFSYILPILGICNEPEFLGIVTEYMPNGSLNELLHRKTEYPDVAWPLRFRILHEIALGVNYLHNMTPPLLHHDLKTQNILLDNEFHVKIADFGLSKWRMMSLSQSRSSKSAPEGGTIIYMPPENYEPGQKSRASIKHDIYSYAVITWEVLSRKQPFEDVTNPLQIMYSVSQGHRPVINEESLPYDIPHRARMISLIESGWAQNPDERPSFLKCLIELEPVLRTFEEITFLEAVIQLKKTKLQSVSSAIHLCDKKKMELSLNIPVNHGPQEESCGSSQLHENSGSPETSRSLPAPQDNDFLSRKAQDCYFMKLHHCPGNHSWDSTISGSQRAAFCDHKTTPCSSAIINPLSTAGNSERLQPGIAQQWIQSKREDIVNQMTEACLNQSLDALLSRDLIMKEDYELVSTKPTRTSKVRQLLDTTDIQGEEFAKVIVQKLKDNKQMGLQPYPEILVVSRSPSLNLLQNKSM
The assay is described as follows: General kinase assay: RICK. Type of assay: biochemical. Conditions: concentration 10 μM; read-out: Inhibitory effect on Target RICK-STREP 1. As for the experimental part:
(§1) General Assay Protocol for all Kinases [[[…]]] [[[…]]] Reaction Buffer: Final Assay Concentrations: [[[…]]] Pipetting Sequence: • 1) Add 8 μl 50 μM MBP in Reaction Buffer to each well of Assay Plate • 2) Add 10 μl 500 mM EDTA in H2O to C- wells • 3) Add 8 μl 62.5 μCi/ml Adenosine 5'-[γ-^33P]triphosphate+5 μM ATP in Reaction Buffer to each well • 4) Add 8 μl 5 fold concentrated inhibitor in 5% DMSO in Reaction Buffer to each well except to C- and C+ wells • 5) Add 8 μl 5% DMSO in Reaction Buffer to C- and C+ wells • 6) Add 8 μl 5 fold concentrated kinase in Reaction Buffer to each well • 7) Incubate 1 hr at room temperature • 8) Add 10 μl 50 mM EDTA in H2O to each well except to C- wells • 9) Prepare MAPH plates by adding 200 μl 0.75% H3PO4 to each well • 10) Exhaust 0.75% H3PO4 using Millipore vacuum station • 11) Add 60 μl 0.75% H3PO4 to each well of MAPH Filter Plate • 12) Transfer 30 μl sample per well from Assay Plate to corresponding well of MAPH Filter Plate • 13) Incubate 30 min at room temperature • 14) Wash each well of MAPH Filter Plates 3× with 200 μl 0.75% H3PO4 using Millipore vacuum station • 15) Add 20 μl Szintilation Liquid to each well of MAPH Filter Plate • 16) Seal MAPH Filter Plate • 17) Store MAPH Filter Plate 30 min in darkness • 18) Quantify radioactivity

Another assay deals with T3, GSK-3beta HIS (Homo sapiens, UniProt P49841).
T3 construct: His
T3 sequence (P49841 whole entry): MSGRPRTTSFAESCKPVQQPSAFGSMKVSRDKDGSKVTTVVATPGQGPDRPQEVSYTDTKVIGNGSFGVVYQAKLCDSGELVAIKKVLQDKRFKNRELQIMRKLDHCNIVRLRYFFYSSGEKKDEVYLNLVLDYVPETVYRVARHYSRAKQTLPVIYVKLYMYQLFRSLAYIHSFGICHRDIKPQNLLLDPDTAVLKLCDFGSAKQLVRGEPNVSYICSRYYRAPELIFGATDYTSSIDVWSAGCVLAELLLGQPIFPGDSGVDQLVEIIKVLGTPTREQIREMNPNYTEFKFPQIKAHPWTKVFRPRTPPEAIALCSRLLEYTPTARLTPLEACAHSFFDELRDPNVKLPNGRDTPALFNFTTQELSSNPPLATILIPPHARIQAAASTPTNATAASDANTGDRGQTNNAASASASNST
The assay is described as follows: General kinase assay: GSK-3beta. Type of assay: biochemical. The settings on record: concentration 10 μM; read-out: Inhibitory effect on Target GSK-3beta HIS. The method, then:
as §1

For another assay, the target named is T4, CK1-alpha GST (Homo sapiens, UniProt P48729).
T4 construct: GST
T4 sequence (P48729 whole entry): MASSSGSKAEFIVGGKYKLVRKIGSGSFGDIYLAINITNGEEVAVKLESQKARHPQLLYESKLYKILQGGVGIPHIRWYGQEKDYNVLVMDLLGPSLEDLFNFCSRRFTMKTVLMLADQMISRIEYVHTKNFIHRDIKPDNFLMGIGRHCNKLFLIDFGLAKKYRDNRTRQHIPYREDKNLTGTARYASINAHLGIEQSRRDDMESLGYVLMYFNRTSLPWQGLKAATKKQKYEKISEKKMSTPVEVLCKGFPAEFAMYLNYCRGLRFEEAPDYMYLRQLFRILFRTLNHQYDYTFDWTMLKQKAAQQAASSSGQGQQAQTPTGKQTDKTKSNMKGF
The assay is described as follows: General kinase assay: CK1-alpha. Format: biochemical. Conditions: concentration 10 μM; read-out: Inhibitory effect on Target CK1-alpha GST. As for the experimental part: as §1

Another assay has as its target T5, SRPK1 GST (Homo sapiens, UniProt Q96SB4).
T5 construct: GST
The assay is described as follows: General kinase assay: SRPK1. Format: biochemical. Conditions: concentration 10 μM; read-out: Inhibitory effect on Target SRPK1 GST. The method, then:
as §1

Structures are written as SMILES.

T1 sequence (P9WI73 whole entry): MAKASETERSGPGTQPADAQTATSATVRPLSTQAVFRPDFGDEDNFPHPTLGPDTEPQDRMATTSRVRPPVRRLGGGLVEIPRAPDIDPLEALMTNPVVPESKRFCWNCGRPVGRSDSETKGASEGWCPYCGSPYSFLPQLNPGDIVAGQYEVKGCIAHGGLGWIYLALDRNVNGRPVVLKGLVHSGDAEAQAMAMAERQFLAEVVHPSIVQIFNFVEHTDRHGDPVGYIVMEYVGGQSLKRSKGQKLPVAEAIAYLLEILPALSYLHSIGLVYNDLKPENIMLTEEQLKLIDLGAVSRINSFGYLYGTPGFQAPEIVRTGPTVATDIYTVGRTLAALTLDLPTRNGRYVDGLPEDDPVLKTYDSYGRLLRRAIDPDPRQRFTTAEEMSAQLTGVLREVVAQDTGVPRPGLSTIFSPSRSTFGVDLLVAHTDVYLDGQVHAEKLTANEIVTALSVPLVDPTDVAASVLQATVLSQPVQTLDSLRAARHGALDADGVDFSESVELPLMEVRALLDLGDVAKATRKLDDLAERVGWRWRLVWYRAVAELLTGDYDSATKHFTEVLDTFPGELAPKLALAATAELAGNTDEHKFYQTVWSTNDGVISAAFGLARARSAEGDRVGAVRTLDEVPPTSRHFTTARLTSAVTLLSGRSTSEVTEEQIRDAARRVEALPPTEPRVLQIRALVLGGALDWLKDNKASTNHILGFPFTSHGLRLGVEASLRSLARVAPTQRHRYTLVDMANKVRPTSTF
T5 sequence (Q96SB4 whole entry): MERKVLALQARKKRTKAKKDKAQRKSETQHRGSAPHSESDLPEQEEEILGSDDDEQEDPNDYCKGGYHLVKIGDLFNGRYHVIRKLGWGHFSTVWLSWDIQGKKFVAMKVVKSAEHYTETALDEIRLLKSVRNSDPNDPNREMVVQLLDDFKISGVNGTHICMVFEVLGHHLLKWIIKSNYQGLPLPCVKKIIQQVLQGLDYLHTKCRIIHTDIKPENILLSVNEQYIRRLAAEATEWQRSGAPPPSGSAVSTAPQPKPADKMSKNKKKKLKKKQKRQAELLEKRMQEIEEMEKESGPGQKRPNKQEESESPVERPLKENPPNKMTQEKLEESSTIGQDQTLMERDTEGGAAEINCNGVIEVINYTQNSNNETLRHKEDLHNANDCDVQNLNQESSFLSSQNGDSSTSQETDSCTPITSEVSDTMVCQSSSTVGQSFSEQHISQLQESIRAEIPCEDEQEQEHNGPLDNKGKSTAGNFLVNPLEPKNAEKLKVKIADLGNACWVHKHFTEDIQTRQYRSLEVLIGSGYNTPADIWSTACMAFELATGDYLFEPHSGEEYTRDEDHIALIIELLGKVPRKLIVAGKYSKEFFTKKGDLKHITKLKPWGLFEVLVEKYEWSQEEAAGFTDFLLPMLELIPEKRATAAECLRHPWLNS

`C=CCNC(=S)Nc1sc2c(c1C(N)=O)CCCC2` [Compound D32, 2-(3-Allyl-thioureido)-4,5,6,7-tetrahydro-benzo[b]thiophene-3-carboxylic acid amide]: the half-inhibitory concentration (IC50) in assay [1] is 1.1 to 10 µM.

For `NC(=O)c1c(NC(=O)NCCc2cccs2)sc2c1CCOC2` [Compound B75, 2-[3-(2-Thiophen-2-yl-ethyl)-ureido]-4,7-dihydro-5H-thieno[2,3-c]pyran-3-carboxylic acid amide], the half-maximal inhibitory concentration (IC50) in assay [1] lay within 0.1 to 1 µM.

`CC(C)=CC(=O)Nc1sc2c(c1C(N)=O)CCOC2` [Compound B17, 2-(3-Methyl-but-2-enoylamino)-4,7-dihydro-5H-thieno[2,3-c]pyran-3-carboxylic acid amide]: the IC50 in assay [1] was 1.1 to 10 µM.

In the case of `NC(=O)c1c(NC(=O)C2CCCC2)sc2c1CCOC2` [Compound B10, 2-(Cyclopentanecarbonyl-amino)-4,7-dihydro-5H-thieno[2,3-c]pyran-3-carboxylic acid amide], in assay [1], the concentration for half-maximal inhibition (IC50) lay in the range of 1.1 to 10 µM.

For the compound `Cc1ccccc1CNC(=O)Nc1sc2c(c1C(N)=O)CCSC2` [Compound C33, 2-[3-(2-Methyl-benzyl)-ureido]-4,7-dihydro-5H-thieno[2,3-c]thiopyran-3-carboxylic acid amide], the half-maximal inhibitory concentration (IC50) in assay [1] was > 10 µM.

`CC=CC(=O)Nc1sc2c(c1C(N)=O)CCOC2` [Compound B16, 2-But-2-enoylamino-4,7-dihydro-5H-thieno[2,3-c]pyran-3-carboxylic acid amide]: the 50% inhibitory concentration (IC50) in assay [1] was 1.1 to 10 µM.

On to `NC(=O)c1c(NC(=O)Nc2ccc(Oc3ccccc3)cc2)sc2c1CCSC2` [Compound C49, 2-[3-(4-Phenoxy-phenyl)-ureido]-4,7-dihydro-5H-thieno[2,3-c]thiopyran-3-carboxylic acid amide], for which, in assay [1], the 50% inhibitory concentration (IC50) lay within 1.1 to 10 µM.

As for `NC(=O)c1c(NC(=O)Nc2ccc3c(c2)OCO3)sc2c1CCC(O)C2` (stereo not drawn) [Compound D212, 2-(3-Benzo[1,3]dioxol-5-yl-ureido)-6-hydroxy-4,5,6,7-tetrahydro-benzo[b]thiophene-3-carboxylic acid amide], the half-maximal inhibitory concentration (IC50) in assay [1] was 0.1 to 1 µM.

`NC(=O)c1c(NC(=O)C2CC2)sc2c1CCC/C2=N\OCc1ccccc1` [Compound D72, E-7-Benzyloxyimino-2-(cyclopropanecarbonyl-amino)-4,5,6,7-tetrahydro-benzo[b]thiophene-3-carboxylic acid amide]: in assay [1], the IC50 is < 0.1 µM.

Regarding `NC(=O)c1c(NC(=O)C2CCC2)sc2c1CCCC2` [Compound D9, 2-(Cyclobutanecarbonylamino)-4,5,6,7-tetrahydro-benzo[b]thiophene-3-carboxylic acid amide], the IC50 in assay [1] fell in the range of 1.1 to 10 µM.

With `CC1CCc2sc(NC(=O)C3CC3)c(C(N)=O)c2C1` (stereo not drawn) [Compound D37, 2-(Cyclopropanecarbonyl-amino)-5-methyl-4,5,6,7-tetrahydro-benzo[b]thiophene-3-carboxylic acid amide], the IC50 in assay [1] is < 0.1 µM.

For the compound `CCC(C)C(=O)Nc1sc2c(c1C(N)=O)CCOC2` (stereo not drawn) [Compound B14, 2-(2-Methyl-butyrylamino)-4 ,7-dihydro-5H-thieno[2,3-c]pyran-3-carboxylic acid amide], the IC50 in assay [1] was > 10 µM.

Regarding `NC(=O)c1c(NC(=O)C2CC2)sc2c(Br)c(O)c(Br)cc12` [Compound A38, 5,7-Dibromo-2-(cyclopropanecarbonyl-amino)-6-hydroxy-benzo[b]thiophene-3-carboxylic acid amide], the IC50 in assay [1] was < 0.1 µM.

Take `NC(=O)c1c(NC(=O)C2CC2)sc2c1CC[S+]([O-])C2` (stereo not drawn) [Compound C2, 2-(Cyclopropanecarbonyl-amino)-6-oxo-4,5,6,7-tetrahydro-6λ^4-thieno[2,3-c]thiopyran-3-carboxylic acid amide]: in assay [1], the IC50 was > 10 µM.

In the case of `NC(=O)c1c(NC(=O)Nc2ccc(I)cc2)sc2c1CCC1(C2)OCCO1` [Compound D175, 2-({[(4-Iodophenyl)amino]carbonyl}amino)-4,7-dihydro-5H-spiro[1-benzothiophene-6,2′-[1,3]dioxolane]-3-carboxamide], the IC50 in assay [1] lay within 0.1 to 1 µM.

For the compound `CCN(CC)C(=O)c1cc2c(C(N)=O)c(NC(=O)C3CC3)sc2cc1O` [Compound A17, 2-(Cyclopropanecarbonyl-amino)-6-hydroxy-benzo[b]thiophene-3,5-dicarboxylic acid 3-amide-5-diethylamid], in assay [1], the concentration for half-maximal inhibition (IC50) lay within 1.1 to 10 µM.

With `NC(=O)c1c(NC(=O)C2CCC2)sc2c1CCOC2` [Compound B15, 2-(Cyclobutanecarbonyl-amino)-4,7-dihydro-5H-thieno[2,3-c]pyran-3-carboxylic acid amide], the IC50 in assay [1] is 1.1 to 10 µM.

As for `NC(=O)c1c(NC(=O)C2CC2)sc2cc(OCCO)ccc12` [Compound A20, 2-(Cyclopropanecarbonyl-amino)-6-(2-hydroxy-ethoxy)-benzo[b]thiophene-3-carboxylic acid amide], in assay [1], the IC50 was 0.1 to 1 µM.

For `CC(C)C(=O)Nc1sc2c(c1C(N)=O)CCOC2` [Compound B2, 2-Isobutyrylamino-4,7-dihydro-5H-thieno[2,3-c]pyran-3-carboxylic acid amide], the IC50 in assay [1] was > 10 µM.

In the case of `CO/N=C1/CCCc2c1sc(NC(=O)C1CC1)c2C(N)=O` [Compound D88, Z-2-(Cyclopropanecarbonyl-amino)-7-methoxyimino-4,5,6,7-tetrahydro-benzo[b]thiophene-3-carboxylic acid amide], in assay [1], the half-maximal inhibitory concentration (IC50) was < 0.1 µM.

As for `CCOC(=O)N1CCC(NC(=O)Nc2sc3c(c2C(N)=O)CCOC3)CC1` [Compound B181, 4-[3-(3-Carbamoyl-4,7-dihydro-5H-thieno[2,3-c]pyran-2-yl)-ureido]-piperidine-1-carboxylic-acid ethyl ester], the half-inhibitory concentration (IC50) in assay [1] lay within 1.1 to 10 µM.

As to `NC(=O)c1c(NC(=O)C2CC2)sc2c1CCC2` [Compound D196, 2-(Cyclopropanecarbonyl-amino)-5,6-dihydro-4H-cyclopenta[b]thiophene-3-carboxylic acid amide], the 50% inhibitory concentration (IC50) in assay [1] is < 0.1 µM.

In the case of `COc1ccc(NC(=O)Nc2sc3c(c2C(N)=O)CCC(=O)C3)cc1` [Compound D106, 2-[3-(4-Methoxy-phenyl)-ureido]-6-oxo-4,5,6,7-tetrahydro-benzo[b]thiophene-3-carboxylic acid amide], in assay [1], the IC50 lay in the range of 0.1 to 1 µM.

With `CC1OCc2sc(NC(=O)C3CC3)c(C(N)=O)c21` (stereo not drawn) [Compound D96, 2-(Cyclopropanecarbonyl-amino)-4-methyl-4,6-dihydro-thieno[2,3-c]furan-3-carboxylic acid amide], the half-maximal inhibitory concentration (IC50) in assay [1] lay in the range of 1.1 to 10 µM.

For `NC(=O)c1c(NC(=O)C2CC2)sc2c1CCC(=NO)C2` [Compound D134, 2-(Cyclopropanecarbonyl-amino)-6-hydroxyimino-4,5,6,7-tetrahydro-benzo[b]thiophene-3-carboxylic acid amide], the inhibition at 10 µM at RICK-STREP 1, at GSK-3beta HIS and at CK1-alpha GST was > 50% in each case.

As to `NC(=O)c1c(NC(=O)Nc2ccncc2)sc2c1CCOC2` [Compound B73, 2-(3-Pyridin-4-yl-ureido]-4,7-dihydro-5H-thieno[2,3-c]pyran-3-carboxylic acid amide], the inhibition at 10 µM at RICK-STREP 1, at SRPK1 GST and on CK1-alpha GST was > 50% each time.

On to `CC(C)(C)C(=O)Nc1sc2c(c1C(N)=O)CCOC2` [Compound B18, 2-(2,2-Dimethyl-propionylamino)-4,7-dihydro-5H-thieno[2,3-c]pyran-3-carboxylic acid amide], for which, in assay [1], the IC50 was > 10 µM.

In the case of `NC(=O)c1c(NC(=O)C2CC2)sc2cc(OCC(=O)NCCO)ccc12` [Compound A8, 2-(Cyclopropanecarbonyl-amino)-6-[(2-hydroxy-ethylcarbamoyl)-methoxy]-benzo[b]thiophene-3-carboxylic acid amide], the half-inhibitory concentration (IC50) in assay [1] lay in the range of 0.1 to 1 µM.

As for `NC(=O)c1c(NC(=O)C2CC2)sc2c1CCOC2` [Compound B1, 2-(Cyclopropanecarbonyl-amino)4,7-dihydro-5H-thieno[2,3-c]pyran-3-carboxylic acid amide], the IC50 in assay [1] lay in the range of 0.1 to 1 µM.
